Measured values reported in PubChem BioAssay (NCI).
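Briefly, cells in 96-well plates were exposed to five compound concentrations for 48 h, and endpoints were estimated by linear interpolation. GI50: concentration for 50% inhibition of growth. At the TGI there is no net growth.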

Columns and labels:
Assay in all cases: NCI tumour cell line growth inhibition, 48 h
[1] = tested on: RXF 393 renal
[2] = tested on: DU-145 prostate
[3] = tested on: SNB-19 CNS
[4] = tested on: CAKI-1 renal
[5] = tested on: OVCAR-3 ovarian
[6] = tested on: SN12C renal
[7] = tested on: IGROV1 ovarian
[8] = tested on: SK-MEL-2 melanoma
[9] = tested on: PC-3 prostate
[10] = tested on: EKVX NSCLC

SMILES	GI50 [1] [µM]	TGI [1] [µM]	GI50 [2] [µM]	TGI [2] [µM]	GI50 [3] [µM]	TGI [3] [µM]	GI50 [4] [µM]	TGI [4] [µM]	GI50 [5] [µM]	TGI [5] [µM]	GI50 [6] [µM]	TGI [6] [µM]	GI50 [7] [µM]	TGI [7] [µM]	GI50 [8] [µM]	TGI [8] [µM]	GI50 [9] [µM]	TGI [9] [µM]	TGI [10] [µM]
Nc1c(C(=O)c2cccc(CCCN3CCOCC3)c2)cnn1-c1ccc(F)cc1	> 25	> 25	> 25	> 25	> 25	> 25	> 25	> 25	> 25	> 25	> 25	> 25	> 25	> 25	> 25	> 25	> 25	> 25	
CCOc1ccccc1NC(=O)CC1C(=O)Nc2ccccc2S1=O (stereo not drawn)		> 100				> 100		> 100		> 100		> 100		> 100		> 100			> 100
COc1cc(NS(C)(=O)=O)ccc1Nc1c2ccc([N+](=O)[O-])cc2nc2c(C)cccc12	1.65	6.35	0.133	10.7	0.213	14.1	1.13	6.94	1.17	9.16	0.175	9.26	1.45	9.36	4.07	16.1	1.1	9.1	
CC1CC(C2=CC=CCS2)=Nc2ccccc2S1 (stereo not drawn)		> 100				> 100		> 100		> 100		> 100		> 100		> 100			> 100
COc1ccc(C(=O)c2cc(OC)c(OC)c(OC)c2)cc1		> 100		1.58		> 32.7		> 88.1		0.283		> 100		> 100		> 100			> 100
O=C(Nc1ccccc1-c1n[nH]c(=S)[nH]c1=O)C(F)(F)F		> 100				> 100		> 100		> 100		> 100		> 100		> 100			> 100
Cc1ccccc1NC(=O)C(=O)C(C#N)c1ccc(Cl)cc1 (stereo not drawn)		> 100				> 100		> 100		> 100		> 100		> 100		> 100			> 100
O=C(Nc1ccc(Cl)cc1Cl)C1C(=O)N(c2ccc(Cl)cc2Cl)C(=O)/C1=N\Nc1ccc([N+](=O)[O-])cc1[N+](=O)[O-] (stereo not drawn)						> 100		> 100		> 100		> 100		> 100		> 100			> 100
COc1cc(/C=C/c2ccncc2)cc(OC)c1OC		99.2				> 100		> 100		> 100		> 100		> 100					> 100
CCNC(=O)[C@@H]1CCCN2C(=O)CC[C@H](NC(=O)[C@H](Cc3ccc(OP(=O)(O)O)cc3)NC(C)=O)C(=O)N12	> 25	> 25	> 25	> 25	> 25	> 25	> 25	> 25	> 25	> 25	> 25	> 25	> 25	> 25	> 25	> 25	> 25	> 25	
O=C(NC1CCN(Cc2ccccc2)CC1)c1cc(-c2ccncc2)nc2ccc(Cl)cc12	5.48	49.2	20.1	63.1	26.3	> 100	5.43	> 50.5	15.4	40.1	35.6	> 100	18.5	> 100	29.8	87.1	13.6	> 100	
CC1CC[C@]2(C(=O)O)CCC3(COC(=O)/C=C\c4ccc(O)cc4)C(=CCC4[C@@]5(C)CC[C@H](O)C(C)(C)C5CC[C@]43C)[C@@H]2[C@H]1C (stereo partly drawn)		33.9				32.7		48.3		37.1		54.2		26.8		51.8			32.8
CC(=O)N[C@@H](Cc1ccc(OP(=O)(O)O)cc1)C(=O)N[C@H]1CCC(=O)N2CCC[C@@H](C(=O)NCc3ccc(Cl)cc3)N2C1=O	> 25	> 25	> 25	> 25	> 25	> 25	> 25	> 25	> 25	> 25	> 25	> 25	> 25	> 25	> 25	> 25	> 25	> 25	
Cc1ccc(NC(=O)c2cc3cc(N=Nc4ccc(Br)cc4)ccc3oc2=O)cc1		> 100				> 100		> 100				> 100				> 100			
